Assay results as given in the supplement of paper PMC11368000.

Tests used:
Conditions in all cases: exposure time: 90 min
[1] = tested on: 1392 (donor line of iPSC-derived cardiomyocytes); assay: POD (EC05) for increase in beat frequency (positive chronotrope) vs vehicle; higher = less potent (higher point of departure)
In short: (§1)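 Points of departure specific to each donor were obtained from hierarchical Bayesian Hill fits to vehicle-normalised beat frequency, decay-to-rise ratio or peak frequency. Thresholds were set at 5% change, or 95% loss in the case of peak frequency. The cells were human iPSC-derived cardiomyocytes from 16 donors, exposed for 90 min at 37 °C to 0.1, 1, 10 and 100 µM (final, 0.5% DMSO), with Ca2+ flux read on a FLIPR Tetra before and after exposure.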

[2] = tested on: 1518 (donor line of iPSC-derived cardiomyocytes); assay: as above
In short: as §1

[3] = tested on: 1434 (donor line of iPSC-derived cardiomyocytes); assay: as above
In short: as §1

[4] = tested on: 11235 (donor line of iPSC-derived cardiomyocytes); assay: as above
In short: as §1

[5] = tested on: 30171 (donor line of iPSC-derived cardiomyocytes); assay: as above
In short: as §1

[6] = tested on: 1565 (donor line of iPSC-derived cardiomyocytes); assay: as above
In short: as §1

[7] = tested on: 1535 (donor line of iPSC-derived cardiomyocytes); assay: as above
In short: as §1

[8] = tested on: 1392; assay: POD (EC05) for increase in Ca2+ transient decay-to-rise ratio (QT prolongation) vs vehicle; higher = less potent (higher point of departure)
Protocol: (§2)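 Human iPSC-derived cardiomyocytes from 16 donors were exposed for 90 min at 37 °C to each PFAS at 0.1, 1, 10 and 100 µM in 0.5% DMSO, 384-well plates. Kinetic Ca2+ flux (FLIPR) and Hoechst nuclei counts were normalised to vehicle wells and fitted with a hierarchical Bayesian Hill model to give donor-specific PODs: EC05 for beat-rate increase or decrease and for decay-to-rise ratio increase (QT proxy), EC95 for peak-frequency loss (asystole), EC10 for total cell number loss. 0.03 µM is the lower bound.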

[9] = tested on: 1434; assay: as above
Protocol: as §2

[10] = tested on: 1368 (donor line of iPSC-derived cardiomyocytes); assay: as above
Protocol: as §2

[11] = tested on: 11235; assay: as above
Protocol: as §2

[12] = tested on: 30171; assay: as above
Protocol: as §2

[13] = tested on: 1083 (donor line of iPSC-derived cardiomyocytes); assay: as above
Protocol: as §2

[14] = tested on: 1309 (donor line of iPSC-derived cardiomyocytes); assay: as above
Protocol: as §2

[15] = tested on: 1118 (donor line of iPSC-derived cardiomyocytes); assay: as above
Protocol: as §2

[16] = tested on: 30145 (donor line of iPSC-derived cardiomyocytes); assay: as above
Protocol: as §2

[17] = tested on: 1565; assay: as above
Protocol: as §2

[18] = tested on: 20032 (donor line of iPSC-derived cardiomyocytes); assay: as above
Protocol: as §2

[19] = tested on: 1535; assay: as above
Protocol: as §2

[20] = tested on: 20084 (donor line of iPSC-derived cardiomyocytes); assay: as above
Protocol: as §2

Structure (SMILES) | POD vs vehicle [1] [µM] | POD vs vehicle [2] [µM] | POD vs vehicle [3] [µM] | POD vs vehicle [4] [µM] | POD vs vehicle [5] [µM] | POD vs vehicle [6] [µM] | POD vs vehicle [7] [µM] | POD vs vehicle [8] [µM] | POD vs vehicle [9] [µM] | POD vs vehicle [10] [µM] | POD vs vehicle [11] [µM] | POD vs vehicle [12] [µM] | POD vs vehicle [13] [µM] | POD vs vehicle [14] [µM] | POD vs vehicle [15] [µM] | POD vs vehicle [16] [µM] | POD vs vehicle [17] [µM] | POD vs vehicle [18] [µM] | POD vs vehicle [19] [µM] | POD vs vehicle [20] [µM]
O=C(O)C(F)(F)C(F)(F)F [Perfluoropropanoic_acid] | > 100 | > 100 | > 100 | > 100 | > 100 | > 100 | > 100 | > 100 | > 100 | > 100 | > 100 | > 100 | > 100 | > 100 | > 100 | > 100 | > 100 | > 100 | > 100 | > 100
O=C(O)CCC(F)(F)C(F)(F)C(F)(F)F [3:3 Fluorotelomer carboxylic acid] | > 100 | > 100 | > 100 | > 100 | > 100 | > 100 | > 100 | > 100 | > 100 | > 100 | > 100 | > 100 | > 100 | > 100 | > 100 | > 100 | > 100 | > 100 | > 100 | > 100
O=S(=O)(OCC(F)(F)F)C(F)(F)C(F)(F)C(F)(F)C(F)(F)F [2,2,2-Trifluoroethyl_perfluorobutanesulfonate] | > 100 | > 100 | > 100 | > 100 | > 100 | > 100 | > 100 | > 100 | > 100 | > 100 | > 100 | > 100 | > 100 | > 100 | > 100 | > 100 | > 100 | > 100 | > 100 | > 100
O=P(O)(O)CCC(F)(F)C(F)(F)C(F)(F)C(F)(F)C(F)(F)C(F)(F)C(F)(F)C(F)(F)F [((Perfluorooctyl)ethyl)phosphonic_acid] | > 100 | > 100 | > 100 | > 100 | > 100 | > 100 | > 100 | > 100 | > 100 | > 100 | > 100 | > 100 | > 100 | > 100 | > 100 | > 100 | > 100 | > 100 | > 100 | > 100
NC(O)(C(F)(F)F)C(F)(F)F [2-Aminohexafluoropropan-2-ol] | > 100 | > 100 | > 100 | > 100 | > 100 | > 100 | > 100 | > 100 | > 100 | > 100 | > 100 | > 100 | > 100 | > 100 | > 100 | > 100 | > 100 | > 100 | > 100 | > 100
O=S(=O)(O)CCC(F)(F)C(F)(F)C(F)(F)C(F)(F)C(F)(F)C(F)(F)F [6:2 Fluorotelomer sulfonic acid] | > 100 | > 100 | > 100 | > 100 | > 100 | > 100 | > 100 | > 100 | > 100 | > 100 | > 100 | > 100 | > 100 | > 100 | > 100 | > 100 | > 100 | > 100 | > 100 | > 100
O=C(O)C(F)(F)OC(F)(F)C(F)(F)OC(F)(F)C(=O)O [Perfluoro-3,6-dioxaoctane-1,8-dioic_acid] | 36 | 28 | > 100 | > 100 | > 100 | > 100 | > 100 | > 100 | > 100 | > 100 | > 100 | > 100 | > 100 | > 100 | > 100 | > 100 | > 100 | > 100 | > 100 | > 100
O=C(O)C(F)(F)C(F)(F)C(F)F [2,2,3,3,4,4-Hexafluorobutanoic_acid] | > 100 | > 100 | > 100 | > 100 | > 100 | > 100 | > 100 | > 100 | > 100 | > 100 | > 100 | > 100 | > 100 | > 100 | > 100 | > 100 | > 100 | > 100 | > 100 | > 100
O=C(O)C(F)(F)C(F)(F)C(F)(F)C(F)(F)C(F)(F)C(F)(F)C(F)(F)C(F)(F)C(F)(F)F [Perfluorodecanoic_acid] | > 100 | > 100 | > 100 | > 100 | > 100 | > 100 | > 100 | > 100 | 19.9 | > 100 | > 100 | > 100 | > 100 | > 100 | > 100 | > 100 | > 100 | > 100 | > 100 | > 100
O=C(O)C(F)(F)C(F)(F)C(F)(F)C(F)(F)F [Perfluoropentanoic_acid] | > 100 | > 100 | > 100 | > 100 | > 100 | > 100 | > 100 | > 100 | > 100 | > 100 | > 100 | > 100 | > 100 | > 100 | > 100 | > 100 | > 100 | > 100 | > 100 | > 100
O=C(O)C(F)(F)OC(F)(F)C(F)(F)OC(F)(F)F [Perfluoro-3,6-dioxaheptanoic_acid] | > 100 | > 100 | > 100 | > 100 | > 100 | > 100 | > 100 | > 100 | > 100 | > 100 | > 100 | > 100 | > 100 | > 100 | > 100 | > 100 | > 100 | > 100 | > 100 | > 100
NC(=O)C(F)(F)C(F)(F)C(F)(F)C(F)(F)C(N)=O [Octafluoroadipamide] | > 100 | > 100 | > 100 | > 100 | > 100 | > 100 | > 100 | > 100 | > 100 | > 100 | > 100 | > 100 | > 100 | > 100 | > 100 | > 100 | > 100 | > 100 | > 100 | > 100
OCCC(F)(F)C(F)(F)C(F)(F)C(F)(F)C(F)(F)C(F)(F)C(F)(F)C(F)(F)F [8:2 Fluorotelomer alcohol] | > 100 | > 100 | > 100 | > 100 | > 100 | > 100 | > 100 | > 100 | > 100 | > 100 | > 100 | > 100 | > 100 | > 100 | > 100 | > 100 | > 100 | > 100 | > 100 | > 100
CC(O)C(F)(F)C(F)(F)F (stereo not given) [1-Pentafluoroethylethanol] | > 100 | > 100 | > 100 | > 100 | > 100 | > 100 | > 100 | > 100 | > 100 | > 100 | > 100 | > 100 | > 100 | > 100 | > 100 | > 100 | > 100 | > 100 | > 100 | > 100
O=S(=O)([O-])C(F)(F)C(F)(F)C(F)(F)C(F)(F)F.[K+] [Potassium_perfluorobutanesulfonate] | > 100 | > 100 | > 100 | > 100 | > 100 | > 100 | > 100 | > 100 | > 100 | > 100 | > 100 | > 100 | > 100 | > 100 | > 100 | > 100 | > 100 | > 100 | > 100 | > 100
O=C(O)C(F)(F)C(F)(F)C(F)(F)C(F)(F)C(=O)O [Octafluoroadipic_acid] | > 100 | > 100 | > 100 | > 100 | > 100 | > 100 | > 100 | > 100 | > 100 | > 100 | > 100 | > 100 | > 100 | > 100 | > 100 | > 100 | > 100 | > 100 | > 100 | > 100
O=C(O)C(F)(F)C(F)(F)C(F)(F)C(F)(F)C(F)(F)C(F)(F)C(F)(F)C(F)(F)C(F)(F)C(F)(F)F [Perfluoroundecanoic_acid] | > 100 | > 100 | > 100 | > 100 | > 100 | > 100 | > 100 | > 100 | > 100 | > 100 | > 100 | 4.57 | > 100 | > 100 | > 100 | > 100 | > 100 | > 100 | > 100 | > 100
O=C(O)C(F)(F)C(F)(F)C(F)(F)F [Perfluorobutanoic_acid] | > 100 | > 100 | > 100 | > 100 | > 100 | > 100 | > 100 | > 100 | > 100 | > 100 | > 100 | > 100 | > 100 | > 100 | > 100 | > 100 | > 100 | > 100 | > 100 | > 100
O=C(O)C(F)(F)C(F)(F)C(F)(F)C(F)(F)C(F)(F)F [Perfluorohexanoic_acid] | > 100 | > 100 | > 100 | > 100 | > 100 | > 100 | > 100 | > 100 | > 100 | > 100 | > 100 | > 100 | > 100 | > 100 | > 100 | > 100 | > 100 | > 100 | > 100 | > 100
